PMC9465062, “Exploring potential antidiabetic and anti-inflammatory flavonoids from Euphorbia humifusa with an integrated strategy” (Frontiers in Pharmacology, 2022)
Values joined by “and” are separate entries in the source; they are usually repeats but may differ in a detail not shown here. Equal values may be shown once. Read-outs that look alike come from different tables or passages of the source. Marks after values point to notes of the source that are not given here.

How the values were obtained:
[1] = molecular target: α-glucosidase (α-Glu) (Saccharomyces cerevisiae, UniProt P53341); assay: Bio-affinity ultrafiltration UPLC/QTOF-MS with α-Glu; conditions: SB = Aactive/Ainactive, ligands from EHNB
Sequence of α-glucosidase (α-Glu) (P53341 whole entry): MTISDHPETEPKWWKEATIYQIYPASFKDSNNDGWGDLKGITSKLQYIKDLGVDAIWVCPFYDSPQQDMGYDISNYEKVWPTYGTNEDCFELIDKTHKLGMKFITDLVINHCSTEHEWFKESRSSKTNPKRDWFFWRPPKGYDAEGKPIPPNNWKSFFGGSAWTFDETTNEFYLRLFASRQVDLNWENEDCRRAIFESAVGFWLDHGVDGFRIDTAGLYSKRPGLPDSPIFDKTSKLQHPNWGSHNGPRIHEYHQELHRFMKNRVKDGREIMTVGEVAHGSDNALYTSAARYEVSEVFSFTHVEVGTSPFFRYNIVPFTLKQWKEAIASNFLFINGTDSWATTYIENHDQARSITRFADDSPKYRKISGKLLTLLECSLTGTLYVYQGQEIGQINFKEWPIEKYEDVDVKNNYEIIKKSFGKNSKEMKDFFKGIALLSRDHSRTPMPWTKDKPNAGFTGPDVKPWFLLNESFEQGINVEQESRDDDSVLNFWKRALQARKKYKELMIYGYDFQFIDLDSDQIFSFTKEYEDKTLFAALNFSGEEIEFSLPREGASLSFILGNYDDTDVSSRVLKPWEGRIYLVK
Experimental: (§2) Concisely, 100 µL volume of EHNB sample was incubated with 40 µL COX-2 (8 units), or 100 µL α-Glu (6 units) active enzymes. Afterward, the mix solutions were incubated for 45 min and subsequently transferred to a centrifugal ultrafiltration vial 10 kDa cut-off filter membrane. They were initially centrifuged at 10,000 rpm for 10 min (25°C) to withdraw the extra solution followed by three successive centrifugations with 200 µL phosphate-buffered saline (PBS) to wash away the non-binding compounds. Finally, the fixed ligand candidates were fished out from the complex throughout enzyme denaturation with 200 μL of 70% (v/v) aqueous methanol before centrifugation (10,000 rpm, 10 min). The filtrates from three denaturation processes were gathered and dried on nitrogen blowing before reconstitution in 50 μL of aqueous methanol (50%, v/v) for further analytical analysis.
(§3) In this study, the high throughput ligand screening bio-affinity ultrafiltration UPLC/QTOF-MS targeting α-Glu and COX-2 has been utilized to fish out these key hypoglycemic and anti-inflammatory chemicals. […] Based on the comparison of peak areas of the chromatograms obtained from the sample incubated with the active enzyme and that of the denatured group, the relative binding of each candidate was assessed via the specific binding value calculated from the equation: Specific binding (SB)=Aactive/Ainactive

[2] = molecular target: T1, COX-2 (Homo sapiens, UniProt P35354); assay: Bio-affinity ultrafiltration UPLC/QTOF-MS with COX-2; conditions: SB = Aactive/Ainactive, ligands from EHNB
T1 sequence (P35354 18-604): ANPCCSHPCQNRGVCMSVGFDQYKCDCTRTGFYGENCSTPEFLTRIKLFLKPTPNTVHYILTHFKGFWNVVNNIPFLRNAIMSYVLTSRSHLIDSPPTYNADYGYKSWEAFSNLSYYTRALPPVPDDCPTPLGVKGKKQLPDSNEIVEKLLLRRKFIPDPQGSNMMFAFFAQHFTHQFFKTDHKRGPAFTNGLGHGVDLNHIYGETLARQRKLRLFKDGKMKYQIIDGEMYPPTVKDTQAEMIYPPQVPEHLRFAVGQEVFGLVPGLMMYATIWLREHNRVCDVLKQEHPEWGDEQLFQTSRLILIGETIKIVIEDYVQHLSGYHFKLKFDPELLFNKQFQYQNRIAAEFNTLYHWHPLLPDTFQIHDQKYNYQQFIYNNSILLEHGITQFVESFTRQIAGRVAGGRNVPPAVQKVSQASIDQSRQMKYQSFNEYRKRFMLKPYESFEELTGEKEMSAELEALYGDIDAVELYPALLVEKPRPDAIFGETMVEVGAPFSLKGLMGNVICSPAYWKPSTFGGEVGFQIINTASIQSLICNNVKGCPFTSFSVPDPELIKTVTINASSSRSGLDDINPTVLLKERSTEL
Experimental: as §2, §3

[3] = DPPH free radical scavenging assay; conditions: mean ± SD, n = 3
Experimental: (§1) The antioxidant activity of our samples was ascertained by evaluating their capacity to scavenge free radicals and reduce ferric ions. The DPPH and ABTS free radical scavenging assays were performed as per the method of Xu and his colleagues ([Xu et al., 2019]). Vit C, Trolox, and BHT were utilized as positive controls whereas pure methanol was for the blank control. The scavenging rate was calculated using the equation: Scavenging rate (%) =(A0 −AS)/A0× 100% With A 0 and As are ascribed to the absorbance value of the blank control, and the tested sample or positive control respectively. The results were expressed in IC50 values (n = 3, mean ± standard deviation).

[4] = molecular target: T1, COX-2; assay: In vitro COX-2 inhibition assay (inhibitor screening kit); type: biochemical; design: purchased Beyotime Biotechnology (Shanghai, China) S0168
Experimental: In brief, the working solutions including COX-2 cofactor, COX-2 enzyme solution, COX-2 substrate, and COX-2 probe were first prepared in accordance with the supplier manual, which were subsequently diluted ten times with the buffer kit assay. Thereafter, 150 µL Tris-HCl (pH 7.8), 10 µL of COX-2 cofactor, and 10 µL of work solution excluding the blank group were mixed in a 96 well black plate. […] After a 10 min incubation at 37°C, the reaction was initiated with 10 µL of COX-2 probe and 10 µL of COX-2 substrate. Finally, their relative fluorescence unit (RFU) was read from an excitation wavelength of 560 nm and an emission wavelength of 590 nm, after 20 min of incubation (37°C).
With RFU 100% enzyme , RFU sample , and RFU blank control represent the relative fluorescence value of the intact enzyme, samples and blank control respectively. The experiment was conducted in triplicates and the IC50 values were expressed into mean ± standard deviation.

[5] = Ferric reducing antioxidant power (FRAP) assay; conditions: mean ± SD, n = 3
Experimental: The ferric […] behavior using the ferric reducing antioxidant power (FRAP) assay was conducted based on a priorly reported method by our research group ([Rakotondrabe et al., 2022]).

[6] = ABTS free radical scavenging assay; conditions: mean ± SD, n = 3
Experimental: as §1

| IC50 DPPH [3] | IC50 ABTS [6] | SMILES | α-Glu SB (specific binding) [1] | COX-2 SB (specific binding) [2] | FRAP [5] | other results |
| --- | --- | --- | --- | --- | --- | --- |
| 10.82 ± 0.37^c µg/ml | – | Cc1cc(C(C)(C)C)c(O)c(C(C)(C)C)c1 [BHT, butylated hydroxytoluene] | – | – | – | – |
| – | 6.15 ± 0.98^d µg/ml | Cc1c(C)c2c(c(C)c1O)CCC(C)(C(=O)O)O2 (centres unmarked) [Trolox] | – | – | 1.79 ± 0.01 mM Fe^2+/g and 1.79 ± 0.01^b mM Fe^2+/g | – |

Continued, compound first:

| SMILES | IC50 DPPH [3] | IC50 ABTS [6] | α-Glu SB (specific binding) [1] | COX-2 SB (specific binding) [2] | FRAP [5] | other results |
| --- | --- | --- | --- | --- | --- | --- |
| O=c1oc2c(O)c(O)cc3c(=O)oc4c(O)c(O)cc1c4c23 [Compound 4, Ellagic acid] | – | – | 1.28 | 1.05 | – | – |
| O=c1cc(-c2ccc(O)cc2)oc2c([C@@H]3O[C@H](CO)[C@@H](O)[C@H](O)[C@H]3O)c(O)cc(O)c12 [Compound 8, Vitexin (Apigenin 8-C-glucoside)] | – | – | 1.26 | 1.32 | – | IC50 [4]: 27.9 ± 1.74 µM |
| O=C1O[C@H]([C@@H](O)CO)C(O)=C1O [Vit C, ascorbic acid] | 3.35 ± 0.12^f µg/ml | 4.18 ± 0.06^e µg/ml | – | – | 2.04 ± 0.01 mM Fe^2+/g and 2.04 ± 0.01^a mM Fe^2+/g | – |
| O=c1c(O[C@@H]2O[C@H](CO)[C@@H](O)[C@H](O)[C@H]2O)c(-c2ccc(O)cc2)oc2cc(O)cc(O)c12 [Compound 6, Astragalin (Kaempferol-3-O-glucoside)] | – | – | 1.32 | 1.36 | – | IC50 ([4]; validation with pure compounds, Figure 6B, read-out: COX-2 IC50): 49.1 ± 1.49 µM |
